# ChEMBL document CHEMBL4229413, “Identification by Inverse Virtual Screening of magnolol-based scaffold as new tankyrase-2 inhibitors” (Bioorg Med Chem, 2018)
# Active and inactive are the calls of the source. No cut-off for these calls is given here.
# Key:
# [1] = molecular target: T1, Poly [ADP-ribose] polymerase tankyrase-2 (Homo sapiens, UniProt Q9H2K2); test: Binding affinity to recombinant human N-terminal His-tagged TNKS2 (Ser959 to Gly1166 residues) expressed in Escherichia coli by surface plasmon resonance analysis
# T1 sequence (Q9H2K2 whole entry): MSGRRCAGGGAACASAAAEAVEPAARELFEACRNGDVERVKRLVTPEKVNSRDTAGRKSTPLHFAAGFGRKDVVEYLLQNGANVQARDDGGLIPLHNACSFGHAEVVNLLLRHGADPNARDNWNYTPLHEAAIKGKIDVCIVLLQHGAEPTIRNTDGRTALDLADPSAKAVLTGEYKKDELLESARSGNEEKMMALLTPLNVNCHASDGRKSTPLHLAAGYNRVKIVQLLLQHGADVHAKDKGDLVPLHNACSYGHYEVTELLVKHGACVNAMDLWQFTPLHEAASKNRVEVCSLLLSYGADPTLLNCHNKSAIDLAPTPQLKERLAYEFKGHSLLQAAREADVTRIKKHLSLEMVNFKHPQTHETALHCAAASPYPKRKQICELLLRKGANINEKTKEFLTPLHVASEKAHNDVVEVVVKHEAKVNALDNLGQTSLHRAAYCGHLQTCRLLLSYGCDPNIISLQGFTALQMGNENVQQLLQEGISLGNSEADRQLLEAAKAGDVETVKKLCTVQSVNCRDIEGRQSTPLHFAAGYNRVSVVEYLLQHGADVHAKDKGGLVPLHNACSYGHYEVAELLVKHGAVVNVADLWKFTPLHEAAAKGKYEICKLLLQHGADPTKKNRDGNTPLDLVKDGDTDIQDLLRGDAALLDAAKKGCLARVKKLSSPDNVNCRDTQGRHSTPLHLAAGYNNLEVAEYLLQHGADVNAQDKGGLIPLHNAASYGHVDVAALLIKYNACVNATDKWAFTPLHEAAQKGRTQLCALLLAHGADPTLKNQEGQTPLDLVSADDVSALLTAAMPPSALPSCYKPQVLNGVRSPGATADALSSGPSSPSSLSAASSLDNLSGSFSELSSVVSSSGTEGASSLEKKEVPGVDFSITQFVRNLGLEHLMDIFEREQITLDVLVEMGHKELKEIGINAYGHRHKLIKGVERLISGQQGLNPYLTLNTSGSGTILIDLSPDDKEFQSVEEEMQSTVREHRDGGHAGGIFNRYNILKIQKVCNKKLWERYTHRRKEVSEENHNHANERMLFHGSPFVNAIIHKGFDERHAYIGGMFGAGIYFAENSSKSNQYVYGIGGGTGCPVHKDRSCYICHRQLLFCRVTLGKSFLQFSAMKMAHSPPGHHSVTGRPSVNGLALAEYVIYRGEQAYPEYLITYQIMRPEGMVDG
# [2] = molecular target: Casein kinase II alpha/beta (Homo sapiens, UniProt P67870+P68400); test: Binding affinity to recombinant human CK2alpha/beta expressed in Escherichia coli by surface plasmon resonance analysis
# [3] = molecular target: T2, Poly [ADP-ribose] polymerase tankyrase-1 (Homo sapiens, UniProt O95271); test: Binding affinity to recombinant human N-terminal GSt-tagged TNKS1 (1000 to 1328 residues) expressed in baculovirus infected Sf9 cells by surface plasmon resonance analysis
# T2 sequence (O95271 whole entry): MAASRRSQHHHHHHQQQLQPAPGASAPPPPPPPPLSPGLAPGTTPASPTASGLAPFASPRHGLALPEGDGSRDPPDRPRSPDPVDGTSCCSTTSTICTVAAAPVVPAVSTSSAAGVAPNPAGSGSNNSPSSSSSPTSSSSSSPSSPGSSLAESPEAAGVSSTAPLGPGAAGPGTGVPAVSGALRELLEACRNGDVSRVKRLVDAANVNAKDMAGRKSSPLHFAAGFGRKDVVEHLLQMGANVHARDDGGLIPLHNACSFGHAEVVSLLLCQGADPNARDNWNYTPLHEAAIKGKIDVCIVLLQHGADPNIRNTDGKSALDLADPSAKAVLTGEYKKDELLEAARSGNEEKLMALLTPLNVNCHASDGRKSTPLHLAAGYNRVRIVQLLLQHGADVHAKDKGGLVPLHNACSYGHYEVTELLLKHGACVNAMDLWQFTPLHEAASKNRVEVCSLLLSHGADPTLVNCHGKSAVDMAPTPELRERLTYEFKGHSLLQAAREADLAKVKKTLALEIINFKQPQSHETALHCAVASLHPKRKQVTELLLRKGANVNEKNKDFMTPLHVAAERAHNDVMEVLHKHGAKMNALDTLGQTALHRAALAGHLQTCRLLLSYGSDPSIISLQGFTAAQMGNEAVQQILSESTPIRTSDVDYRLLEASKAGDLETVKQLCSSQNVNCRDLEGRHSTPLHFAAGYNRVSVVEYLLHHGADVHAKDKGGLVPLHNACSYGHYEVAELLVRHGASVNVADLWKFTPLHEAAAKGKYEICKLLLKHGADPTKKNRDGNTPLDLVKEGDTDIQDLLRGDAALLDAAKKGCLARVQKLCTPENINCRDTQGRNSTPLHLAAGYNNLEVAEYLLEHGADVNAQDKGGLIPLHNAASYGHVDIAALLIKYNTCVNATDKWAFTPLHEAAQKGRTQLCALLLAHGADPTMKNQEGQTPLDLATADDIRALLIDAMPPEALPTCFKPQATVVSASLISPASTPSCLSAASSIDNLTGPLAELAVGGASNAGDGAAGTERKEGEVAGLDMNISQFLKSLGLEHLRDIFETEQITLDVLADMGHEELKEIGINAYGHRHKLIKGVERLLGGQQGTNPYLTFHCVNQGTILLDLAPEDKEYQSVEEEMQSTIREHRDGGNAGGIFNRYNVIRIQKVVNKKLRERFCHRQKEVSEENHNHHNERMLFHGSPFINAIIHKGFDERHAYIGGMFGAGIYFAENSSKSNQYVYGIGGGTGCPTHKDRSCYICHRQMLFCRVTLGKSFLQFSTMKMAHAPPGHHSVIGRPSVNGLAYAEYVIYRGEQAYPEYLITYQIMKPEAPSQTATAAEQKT
# [4] = molecular target: Poly [ADP-ribose] polymerase 1 (Homo sapiens, UniProt P09874); test: Binding affinity to recombinant human PARP1 expressed in baculovirus infected Sf9 cells by surface plasmon resonance analysis
# [5] = molecular target: T3, Bromodomain-containing protein 9 (Homo sapiens) (UniProt Q9H8M2); test: Binding affinity to BRD9 (unknown origin) by surface plasmon resonance analysis
# T3 sequence (whole entry): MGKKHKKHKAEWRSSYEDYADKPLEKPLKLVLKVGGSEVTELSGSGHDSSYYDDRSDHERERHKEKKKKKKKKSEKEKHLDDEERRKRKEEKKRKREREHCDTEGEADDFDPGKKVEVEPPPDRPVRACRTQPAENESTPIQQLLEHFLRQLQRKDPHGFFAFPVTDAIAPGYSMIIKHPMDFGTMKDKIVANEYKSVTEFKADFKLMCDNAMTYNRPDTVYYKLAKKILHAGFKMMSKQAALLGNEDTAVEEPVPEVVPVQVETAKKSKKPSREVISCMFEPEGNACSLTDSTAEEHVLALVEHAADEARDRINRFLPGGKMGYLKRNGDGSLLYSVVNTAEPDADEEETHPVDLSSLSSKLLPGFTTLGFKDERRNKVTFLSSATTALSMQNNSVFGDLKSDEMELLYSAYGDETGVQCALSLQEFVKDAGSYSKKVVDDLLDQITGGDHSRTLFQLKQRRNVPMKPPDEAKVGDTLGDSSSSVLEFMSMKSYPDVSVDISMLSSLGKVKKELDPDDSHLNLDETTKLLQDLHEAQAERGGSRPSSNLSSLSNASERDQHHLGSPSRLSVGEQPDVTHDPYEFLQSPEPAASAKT
# [6] = tested on: A549; test: Antiproliferative activity against human A549 cells assessed as effect on cell viability at 100 uM after 72 hrs by MTT assay relative to control; assay type: functional
# [7] = tested on: A549
# Description: (§1) Growth inhibition of human A549 cells after 72 hrs by MTT assay
# [8] = tested on: A549; test: cells; details: Homo sapiens, A549, 72 h
# Description: as §1
# Chain of Casein kinase II alpha/beta (P67870 whole entry, the tested form may be a part): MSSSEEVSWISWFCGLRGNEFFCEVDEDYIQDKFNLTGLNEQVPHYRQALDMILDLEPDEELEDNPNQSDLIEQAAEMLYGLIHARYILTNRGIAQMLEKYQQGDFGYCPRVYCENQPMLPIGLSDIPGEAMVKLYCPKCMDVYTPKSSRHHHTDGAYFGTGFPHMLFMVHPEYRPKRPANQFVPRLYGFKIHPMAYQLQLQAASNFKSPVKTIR
# Chain of Casein kinase II alpha/beta (P68400 whole entry, the tested form may be a part): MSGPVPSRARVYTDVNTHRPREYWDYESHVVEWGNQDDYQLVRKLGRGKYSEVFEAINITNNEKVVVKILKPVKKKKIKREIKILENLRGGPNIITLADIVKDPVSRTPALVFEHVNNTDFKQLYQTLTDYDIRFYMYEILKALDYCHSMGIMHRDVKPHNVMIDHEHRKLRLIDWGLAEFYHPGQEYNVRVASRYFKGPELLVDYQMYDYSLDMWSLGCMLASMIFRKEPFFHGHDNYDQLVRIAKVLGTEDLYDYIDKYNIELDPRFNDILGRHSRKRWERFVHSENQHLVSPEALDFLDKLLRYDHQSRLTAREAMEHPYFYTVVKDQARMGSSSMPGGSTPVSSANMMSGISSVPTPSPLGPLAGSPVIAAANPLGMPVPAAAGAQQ
# Chain of Poly [ADP-ribose] polymerase 1 (P09874 whole entry): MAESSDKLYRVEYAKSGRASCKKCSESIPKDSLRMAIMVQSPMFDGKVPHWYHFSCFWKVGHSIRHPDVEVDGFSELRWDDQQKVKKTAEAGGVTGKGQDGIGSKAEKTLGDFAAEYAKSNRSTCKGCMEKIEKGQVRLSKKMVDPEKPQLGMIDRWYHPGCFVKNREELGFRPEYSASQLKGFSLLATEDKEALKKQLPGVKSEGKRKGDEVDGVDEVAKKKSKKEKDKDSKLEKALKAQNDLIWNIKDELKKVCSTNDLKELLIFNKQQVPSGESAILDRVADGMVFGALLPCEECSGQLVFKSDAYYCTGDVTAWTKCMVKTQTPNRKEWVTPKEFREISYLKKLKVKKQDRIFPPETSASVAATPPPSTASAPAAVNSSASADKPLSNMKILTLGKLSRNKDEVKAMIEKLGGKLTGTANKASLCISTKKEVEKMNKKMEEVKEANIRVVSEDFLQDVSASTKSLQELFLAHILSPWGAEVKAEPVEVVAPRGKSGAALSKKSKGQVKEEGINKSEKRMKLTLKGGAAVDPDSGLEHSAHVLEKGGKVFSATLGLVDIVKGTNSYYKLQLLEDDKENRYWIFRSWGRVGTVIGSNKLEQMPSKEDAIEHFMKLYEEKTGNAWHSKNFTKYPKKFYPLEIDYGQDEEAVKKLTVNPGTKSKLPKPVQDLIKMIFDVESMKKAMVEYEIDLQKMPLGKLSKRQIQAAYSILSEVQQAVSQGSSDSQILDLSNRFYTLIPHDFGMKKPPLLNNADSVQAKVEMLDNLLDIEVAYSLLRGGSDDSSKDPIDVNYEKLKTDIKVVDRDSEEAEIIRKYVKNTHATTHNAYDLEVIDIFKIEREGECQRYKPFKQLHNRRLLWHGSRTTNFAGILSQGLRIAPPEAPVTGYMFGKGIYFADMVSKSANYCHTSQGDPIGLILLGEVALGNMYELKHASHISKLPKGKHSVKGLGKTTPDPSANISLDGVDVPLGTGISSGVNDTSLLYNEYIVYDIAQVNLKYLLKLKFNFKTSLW
Structure (SMILES),Kd [1],Kd [2],Kd ([3]; sf9),Kd ([4]; sf9),Activity [5],Kd ([1]; read-out: Kd) [nM],Activity [6],IC50 [7],Kd ([3]; read-out: Kd) [nM],Kd ([4]; read-out: Kd) [nM],IC50 [8] [nM]
C=CCc1ccc(O)c(-c2cc(CC=C)ccc2O)c1 [MAGNOLOL],Not Active,Not Active,Not Active,Not Active,inactive,,,,,,
COc1cc(CCCOC(C)=O)cc(-c2cc(CCCOC(C)=O)cc(OC)c2O)c1O,,Not Active,Not Active,Not Active,inactive,6.5,20 - 30%,Not Active,,,
COc1cc(CCCO)cc(-c2cc(CCCO)cc(OC)c2O)c1O,,Not Active,Not Active,Not Active,inactive,18.5,20 - 30%,Not Active,,,
C=CCc1ccc(O)c(-c2cc(CC=C)cc(O)c2O)c1,Not Active,Not Active,,,inactive,,,,5260,1250,
C=CCc1cc(O)c(O)c(-c2cc(CC=C)cc(OC)c2O)c1,,Not Active,,Not Active,inactive,21,,,520,,4700
Oc1nc(-c2ccc(C(F)(F)F)cc2)nc2c1CSCC2,,,,,,,,,,,12300
